One data set concerns SARS-CoV-2. Kind of data set: microbe, parasite or virus in culture. It is filed as cell-based. To be noted: for inhibition of SARS-CoV-2 by monoterpenes (in words): 72 h incubation.
The nature of data set [1]: Cytotoxicity assay (MTS tetrazolium) on Vero 76 cells. The following applies: African green monkey.
A further data set is described as follows: in vitro. The following applies: African green monkey.
Setting [2] is: Severe acute respiratory syndrome coronavirus 2, Vero 76, 72 h, monoterpenes, infected Vero 76 cells, 0.02 MOI, 72 h, MTT, tested 1,000–4.91 μM, mean ± SD, read-out: EC50 SARS-Cov2.
[3] abbreviates: monoterpenes, infected Vero 76 cells, 0.02 MOI, 72 h, MTT, tested 1,000–4.91 μM, mean ± SD, read-out: EC50 SARS-Cov2.
The mark [4] stands for this setting: Severe acute respiratory syndrome coronavirus 2, Vero 76, 72 h, read-out: EC50 SARS-Cov2, monoterpenes, infected Vero 76 cells, 0.02 MOI, 72 h, MTT, tested 1,000–4.91 μM, mean ± SD.
[5] abbreviates: read-out: EC50 SARS-Cov2, monoterpenes, infected Vero 76 cells, 0.02 MOI, 72 h, MTT, tested 1,000–4.91 μM, mean ± SD.

Entries after “also recorded” stand apart in the source; their conditions may differ. Where two headings read alike, the source gives them in different places. Bounds are passed on as bounds.

Results on 14 compounds are retold here after paper PMC9108200, “Antiviral Activity of Selected Lamiaceae Essential Oils and Their Monoterpenes Against SARS-Cov-2” (Frontiers in Pharmacology, 2022).

With `CC12CCC(CC1)C(C)(C)O2` [1,8-Cineol], the values for the EC50 with SARS-CoV-2 (setting [2]) and in the data set with SARS-CoV-2 (setting [3]) were over 100 µM and 129 ± 15 µM, respectively. Also, the half-maximal inhibitory concentration (IC50) in data set [1] is over 1000 µM.
As to `Cc1ccc(C(C)C)cc1O` [Carvacrol], the concentration for a half-maximal effect (EC50) is 86.5 ± 12.7 µM with SARS-CoV-2 (setting [4]); 80.2 ± 6.07 µM in the data set with SARS-CoV-2 (setting [5]); under 100 µM in the data set on SARS-CoV-2 (read-out: EC50 SARS-Cov2, monoterpenes, infected Vero 76 cells, 0.02 MOI, 72 h, MTT, tested 1,000–4.91 μM, mean ± SD, listed as carvacrol). In the data set “in vitro”, this compound had an IC50 of 455 ± 31.1 µM.
With `C=C(C)C1CC=C(C)C(=O)C1` (centres unmarked) [Carvone], the 50% effective concentration (EC50) came to 80.2 ± 6.07 µM in the data set with SARS-CoV-2 (setting [2]) and 86.5 ± 12.7 µM with SARS-CoV-2 (setting [3]). Moreover, in data set [1], the half-inhibitory concentration (IC50) was over 1000 µM.
On to `CCN(CC)CCCC(C)Nc1ccnc2cc(Cl)ccc12` (centres unmarked) [Chloroquine, reference compound], for which, in the data set with SARS-CoV-2 (setting [2]), the EC50 was 7.57 ± 1.18 µM. This compound gave a 50% inhibitory concentration (IC50) in “in vitro” of over 1000 µM.
Take `C=C(C)C1CC=C(C)CC1` (centres unmarked) [Limonene]: in the data set on SARS-CoV-2 (Severe acute respiratory syndrome coronavirus 2, Vero 76, 72 h, read-out: EC50 SARS-Cov2), the concentration for a half-maximal effect (EC50) is over 1000 µM. The same compound had a half-inhibitory concentration (IC50) in data set [1] of over 1000 µM.
On to `C=CC(C)(O)CCC=C(C)C` (centres unmarked) [Linalool], for which the concentration giving a half-maximal response (EC50) in the data set on SARS-CoV-2 (setting [4]) is over 1000 µM. In addition, the “inhibition of SARS-CoV-2 by monoterpenes (in words)” value (from here on “inhibition … (in words)”) in the data set on SARS-CoV-2 (infected Vero 76 cells) was “did not inhibit the SARS-CoV-2 at any significant rate; also recorded: Absence of activity”. The half-maximal inhibitory concentration (IC50) in the data set “in vitro” is over 1000 µM.
For `Cc1coc2c1CCC(C)C2` (centres unmarked) [Menthofuran], the figures for the EC50 in the data set with SARS-CoV-2 (setting [4]) and in the data set on SARS-CoV-2 (setting [5]) were over 100 µM and 154 ± 16.3 µM, respectively. In the data set “in vitro”, this compound displayed an IC50 of 506 ± 76.4 µM.
Take `CC1CCC(C(C)C)C(O)C1` (centres unmarked) [Menthol]: the EC50 in the data set on SARS-CoV-2 (setting [2]) was over 1000 µM. The “inhibition … (in words)” value with SARS-CoV-2 (infected Vero 76 cells) is listed as “did not inhibit the SARS-CoV-2 at any significant rate; also recorded: Absence of activity”. The half-maximal inhibitory concentration (IC50) in data set [1] was over 1000 µM.
In the case of `CC(C)[C@@H]1CC[C@@H](C)CC1=O` [Menthone], the EC50 in the data set with SARS-CoV-2 (setting [2]) was over 1000 µM. Further, the “inhibition … (in words)” value in the data set with SARS-CoV-2 (infected Vero 76 cells) is listed as “did not inhibit the SARS-CoV-2 at any significant rate; also recorded: Absence of activity”. In addition, in data set [1], the concentration for half-maximal inhibition (IC50) was over 1000 µM.
For the compound `CC(C)=C1CC[C@@H](C)CC1=O` [Pulegone], the EC50 is over 100 µM with SARS-CoV-2 (setting [4]) and 196 ± 17.1 µM in the data set on SARS-CoV-2 (setting [5]). Moreover, the IC50 in the data set “in vitro” is over 1000 µM.
On to `CC1=CCC(O)(C(C)C)CC1` (centres unmarked) [Terpinen-4-ol], for which, in the data set with SARS-CoV-2 (setting [2]), the EC50 was over 1000 µM. Also, in the data set with SARS-CoV-2 (infected Vero 76 cells), the “inhibition … (in words)” value is “did not inhibit the SARS-CoV-2 at any significant rate; also recorded: Absence of activity”. The compound also returned an IC50 in data set [1] of over 1000 µM.
`Cc1ccc(C(C)C)c(O)c1` [Thymol]: in the data set on SARS-CoV-2 (infected Vero 76 cells, 72 h, concentration not given), the “rate of SARS-Cov-2 inhibition” value came out at 58.54 ± 10.45%. Besides, in the data set on SARS-CoV-2 (infected Vero 76 cells), the “inhibition … (in words)” value was “limited antiviral activity”. Inhibition in data set [1] was half-maximal at 509 ± 31.5 µM (IC50).
In the case of `Cc1ccc(C(C)C)cc1` [p-Cymene], the EC50 in the data set on SARS-CoV-2 (setting [2]) was over 1000 µM. For the same compound, the “inhibition … (in words)” value in the data set on SARS-CoV-2 (infected Vero 76 cells) is reported as “did not inhibit the SARS-CoV-2 at any significant rate; also recorded: Absence of activity”. In data set [1], the IC50 was over 1000 µM.
For `CC1=CC[C@@H](C(C)(C)O)CC1` [α-Terpineol], in the data set on SARS-CoV-2 (setting [2]), the concentration for a half-maximal effect (EC50) is over 1000 µM. For the same compound, the “inhibition … (in words)” value with SARS-CoV-2 (infected Vero 76 cells) is “did not inhibit the SARS-CoV-2 at any significant rate; also recorded: Absence of activity”. This compound came in with an IC50 in data set [1] of over 1000 µM.
